Measurements: ChEMBL document CHEMBL3885861, “Open TG-GATES”

Species on record: Rattus norvegicus
Test: Open TG-GATES - Regimen: Single
Type: toxicity, organism-based, Sprague-Dawley
Set-up: regimen Single, gender Male, age 6 weeks
Conditions: in vivo, po, 0 mg/kg, route gavage, dose level Control; for APTT / Bas / Eos / Fbg / Hb / Ht / Lym / MCH / MCHC / MCV / Mono / Neu / PT / Plat / RBC / Ret / WBC: tissue Blood; for KIDNEY_L / KIDNEY_R / KIDNEY_TOTAL: tissue Kidney; for LIVER: tissue Liver; for A/G / ALP / ALT / AST / BUN / CRE / Ca / Cl / DBIL / GLC / IP / K / LDH / Na / PL / RALB / TBIL / TC / TG / TP / gamma-GTP: tissue Plasma

## C[C@H]1C(=O)O[C@@H]2CCN3CC=C(COC(=O)[C@](C)(O)[C@]1(C)O)[C@H]23 [MONOCROTALINE]
3 h
  TERMINAL_BW: 217.7 g
  APTT: 20.3 s
  Bas: 0%
  Eos: 0.8%
  Fbg: 316 mg/dL
  Hb: 12.9 g/dL
  Ht: 37.7%
  Lym: 76.4%
  MCH: 21.8 pg
  MCHC: 34.2%
  MCV: 63.8 fL
  Mono: 3.2%
  Neu: 19%
  PT: 16.8 s
  Plat: 116.9 x10_4/uL
  RBC: 591.6 x10_4/ul
  Ret: 9.3%
  WBC: 86.4 x10_2/uL
  KIDNEY_L: 1 g
  KIDNEY_R: 1 g
  KIDNEY_TOTAL: 2 g
  LIVER: 10.4 g
  A/G: 1.3
  ALP: 1563.2 IU/L
  ALT: 38 IU/L
  AST: 66.8 IU/L
  BUN: 13.4 mg/dL
  CRE: 0.2 mg/dL
  Ca: 10.7 mg/dL
  Cl: 106.6 meq/L
  DBIL: 0.002 mg/dL
  GLC: 185.6 mg/dL
  IP: 8.3 mg/dL
  K: 4 meq/L
  LDH: 161 IU/L
  Na: 142.6 meq/L
  PL: 141.8 mg/dL
  RALB: 3.1 g/dL
  TBIL: 0.028 mg/dL
  TC: 78.2 mg/dL
  TG: 58.6 mg/dL
  TP: 5.4 g/dL
  gamma-GTP: 1 IU/L
6 h
  TERMINAL_BW: 200.2 g
  APTT: 20.2 s
  Bas: 0%
  Eos: 1%
  Fbg: 316 mg/dL
  Hb: 13.4 g/dL
  Ht: 39.5%
  Lym: 81%
  MCH: 21.5 pg
  MCHC: 33.9%
  MCV: 63.2 fL
  Mono: 2.8%
  Neu: 14.8%
  PT: 16.2 s
  Plat: 112.4 x10_4/uL
  RBC: 626.4 x10_4/ul
  Ret: 7.8%
  WBC: 94 x10_2/uL
  KIDNEY_L: 0.9 g
  KIDNEY_R: 0.9 g
  KIDNEY_TOTAL: 1.9 g
  LIVER: 8.5 g
  A/G: 1.3
  ALP: 1365.8 IU/L
  ALT: 37.6 IU/L
  AST: 71.6 IU/L
  BUN: 11.4 mg/dL
  CRE: 0.1 mg/dL
  Ca: 10.6 mg/dL
  Cl: 106.8 meq/L
  DBIL: 0.004 mg/dL
  GLC: 176 mg/dL
  IP: 9 mg/dL
  K: 4.2 meq/L
  LDH: 230.6 IU/L
  Na: 142.6 meq/L
  PL: 132.4 mg/dL
  RALB: 3.1 g/dL
  TBIL: 0.026 mg/dL
  TC: 75.2 mg/dL
  TG: 56 mg/dL
  TP: 5.5 g/dL
  gamma-GTP: 1.2 IU/L
9 h
  TERMINAL_BW: 207.2 g
  APTT: 19.8 s
  Bas: 0%
  Eos: 1%
  Fbg: 300.8 mg/dL
  Hb: 13.3 g/dL
  Ht: 38.8%
  Lym: 73%
  MCH: 21.4 pg
  MCHC: 34.2%
  MCV: 62.7 fL
  Mono: 2.6%
  Neu: 22.4%
  PT: 16.2 s
  Plat: 110.9 x10_4/uL
  RBC: 618.6 x10_4/ul
  Ret: 8.7%
  WBC: 92.3 x10_2/uL
  KIDNEY_L: 0.9 g
  KIDNEY_R: 1 g
  KIDNEY_TOTAL: 1.9 g
  LIVER: 8.6 g
  A/G: 1.3
  ALP: 1373.4 IU/L
  ALT: 38 IU/L
  AST: 67.8 IU/L
  BUN: 10.4 mg/dL
  CRE: 0.2 mg/dL
  Ca: 10.4 mg/dL
  Cl: 106.8 meq/L
  DBIL: 0.004 mg/dL
  GLC: 174.2 mg/dL
  IP: 9.1 mg/dL
  K: 4.1 meq/L
  LDH: 184.2 IU/L
  Na: 142 meq/L
  PL: 137 mg/dL
  RALB: 3.1 g/dL
  TBIL: 0.028 mg/dL
  TC: 83.2 mg/dL
  TG: 50.4 mg/dL
  TP: 5.4 g/dL
  gamma-GTP: 1 IU/L
24 h
  TERMINAL_BW: 221.9 g
  APTT: 22 s
  Bas: 0%
  Eos: 1%
  Fbg: 299 mg/dL
  Hb: 12.9 g/dL
  Ht: 37.9%
  Lym: 83%
  MCH: 20.8 pg
  MCHC: 34.1%
  MCV: 61.1 fL
  Mono: 2.8%
  Neu: 12.6%
  PT: 16.5 s
  Plat: 119.4 x10_4/uL
  RBC: 620.4 x10_4/ul
  Ret: 8.4%
  WBC: 85.2 x10_2/uL
  KIDNEY_L: 1 g
  KIDNEY_R: 1 g
  KIDNEY_TOTAL: 2 g
  LIVER: 10.5 g
  A/G: 1.3
  ALP: 1787.6 IU/L
  ALT: 44.4 IU/L
  AST: 74 IU/L
  BUN: 18.4 mg/dL
  CRE: 0.2 mg/dL
  Ca: 10.7 mg/dL
  Cl: 105 meq/L
  DBIL: 0.006 mg/dL
  GLC: 187.6 mg/dL
  IP: 6.8 mg/dL
  K: 4.2 meq/L
  LDH: 227.2 IU/L
  Na: 141.2 meq/L
  PL: 150.4 mg/dL
  RALB: 3.2 g/dL
  TBIL: 0.008 mg/dL
  TC: 78.2 mg/dL
  TG: 101.6 mg/dL
  TP: 5.6 g/dL
  gamma-GTP: 1 IU/L
